Assay results from the supplement of paper PMC10627819.

Assays:
B. subtilis 168 [1] = assay: Bliss interaction score (quartile over a dose matrix) (fitness difference); higher = more antagonism (negative = synergy)
Summary of the method: (§1)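 OD595 was read at entry into stationary phase and expressed relative to the robust mean of the no-drug wells on the same plate, capped at 1. The resulting ratio is the fitness value. The Bliss score, observed fitness minus product-based expected fitness with single-drug fitness inferred from combinations, is summarised by quartiles over technical, biological and donor/recipient replicates.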

S. aureus Newman [2] = assay: as above
Summary of the method: as §1

S. aureus DSM 20231 [3] = assay: as above
Summary of the method: as §1

S. pneumoniae D39V [4] = assay: as above
Summary of the method: as §1

B. subtilis 168 [5] = assay: fitness (endpoint OD595 vs no drug) (fraction); higher = more growth
Summary of the method: (§2)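 At 37 °C, bacteria in TSB, LB Lennox or CY were grown in 384-well plates from a starting OD595 of 0.01. OD595 was measured every 30 min for 14 h, with the first reading used as background. Fitness is the optical density at the switch to stationary phase as a fraction of the robust mean of no-drug control wells, capped at 1.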

S. aureus Newman [6] = assay: as above
Summary of the method: as §2

S. aureus DSM 20231 [7] = assay: as above
Summary of the method: as §2

S. pneumoniae D39V [8] = assay: as above
Summary of the method: as §2

[9] = first compound 0.078 µg/mL, partner 0.625 µg/mL
[10] = first compound 0.078 µg/mL, partner 1.25 µg/mL
[11] = first compound 0.078 µg/mL, partner 2.5 µg/mL
[12] = first compound 0.156 µg/mL, partner 0.625 µg/mL
[13] = first compound 0.156 µg/mL, partner 1.25 µg/mL
[14] = first compound 0.156 µg/mL, partner 2.5 µg/mL
[15] = first compound 0.312 µg/mL, partner 0.625 µg/mL
[16] = first compound 0.312 µg/mL, partner 1.25 µg/mL
[17] = first compound 0.312 µg/mL, partner 2.5 µg/mL
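For Bliss interaction score (quartile over a dose matrix) in this document: first quartile when negative (synergy) and third quartile when positive (antagonism).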

SMILES: CO/N=C(\C(=O)N[C@@H]1C(=O)N2C(C(=O)O)=C(COC(C)=O)CS[C@H]12)c1csc(N)n1 [Cefotaxime] + COc1cccc2c1C(=O)c1c(O)c3c(c(O)c1C2=O)C[C@@](O)(C(=O)CO)C[C@@H]3O[C@H]1C[C@H](N)[C@H](O)[C@H](C)O1 [Doxorubicin]
- Bliss interaction score (B. subtilis 168 [1]): -0.17
- Bliss interaction score (S. aureus Newman [2]): 0.0946
- Bliss interaction score (S. aureus DSM 20231 [3]): -0.086
- Bliss interaction score (S. pneumoniae D39V [4]): 0.0436
- fitness (B. subtilis 168 [5]; first compound 0.00775 µg/mL, partner 0.625 µg/mL, one replicate): 0.844
- fitness (B. subtilis 168 [5]; first compound 0.00775 µg/mL, partner 1.25 µg/mL, one replicate): 0.771
- fitness (B. subtilis 168 [5]; first compound 0.00775 µg/mL, partner 2.5 µg/mL, one replicate): 0.35
- fitness (B. subtilis 168 [5]; first compound 0.0155 µg/mL, partner 0.625 µg/mL, one replicate): 0.659
- fitness (B. subtilis 168 [5]; first compound 0.0155 µg/mL, partner 1.25 µg/mL, one replicate): 0.571
- fitness (B. subtilis 168 [5]; first compound 0.0155 µg/mL, partner 2.5 µg/mL, one replicate): 0.0312
- fitness (B. subtilis 168 [5]; first compound 0.031 µg/mL, partner 0.625 µg/mL, one replicate): 0.476
- fitness (B. subtilis 168 [5]; first compound 0.031 µg/mL, partner 1.25 µg/mL, one replicate): 0.371
- fitness (B. subtilis 168 [5]; first compound 0.031 µg/mL, partner 2.5 µg/mL, one replicate): 0.0055
- fitness (B. subtilis 168 [5]; first compound 0.0625 µg/mL, partner 0.625 µg/mL, one replicate): 0.382
- fitness (B. subtilis 168 [5]; first compound 0.0625 µg/mL, partner 1.25 µg/mL, one replicate): 0.337
- fitness (B. subtilis 168 [5]; first compound 0.0625 µg/mL, partner 2.5 µg/mL, one replicate): 0.0527
- fitness (B. subtilis 168 [5]; first compound 0.125 µg/mL, partner 0.625 µg/mL, one replicate): 0.227
- fitness (B. subtilis 168 [5]; first compound 0.125 µg/mL, partner 1.25 µg/mL, one replicate): 0.232
- fitness (B. subtilis 168 [5]; first compound 0.125 µg/mL, partner 2.5 µg/mL, one replicate): 0.048
- fitness (B. subtilis 168 [5]; first compound 0.25 µg/mL, partner 0.625 µg/mL, one replicate): 0.187
- fitness (B. subtilis 168 [5]; first compound 0.25 µg/mL, partner 1.25 µg/mL, one replicate): 0.196
- fitness (B. subtilis 168 [5]; first compound 0.25 µg/mL, partner 2.5 µg/mL, one replicate): 0.0308
- fitness (B. subtilis 168 [5]; first compound 0.5 µg/mL, partner 0.625 µg/mL): 0.183
- fitness (B. subtilis 168 [5]; first compound 0.5 µg/mL, partner 1.25 µg/mL): 0.16
- fitness (B. subtilis 168 [5]; first compound 0.5 µg/mL, partner 2.5 µg/mL): 0.0662
- fitness (B. subtilis 168 [5]; first compound 1 µg/mL, partner 0.625 µg/mL): 0.106
- fitness (B. subtilis 168 [5]; first compound 1 µg/mL, partner 1.25 µg/mL): 0.0654
- fitness (B. subtilis 168 [5]; first compound 1 µg/mL, partner 2.5 µg/mL): 0.0366
- fitness (B. subtilis 168 [5]; first compound 2 µg/mL, partner 0.625 µg/mL): 0.0861
- fitness (B. subtilis 168 [5]; first compound 2 µg/mL, partner 1.25 µg/mL): 0.0715
- fitness (B. subtilis 168 [5]; first compound 2 µg/mL, partner 2.5 µg/mL): 0.0755
- fitness (S. aureus Newman [6]; [9]): 0.613
- fitness (S. aureus Newman [6]; [10]): 0.68
- fitness (S. aureus Newman [6]; [11]): 0.663
- fitness (S. aureus Newman [6]; [12]): 0.563
- fitness (S. aureus Newman [6]; [13]): 0.592
- fitness (S. aureus Newman [6]; [14]): 0.618
- fitness (S. aureus Newman [6]; [15]): 0.458
- fitness (S. aureus Newman [6]; [16]): 0.45
- fitness (S. aureus Newman [6]; [17]): 0.408
- fitness (S. aureus Newman [6]; first compound 0.625 µg/mL, partner 0.625 µg/mL, one replicate): 0.0853
- fitness (S. aureus Newman [6]; first compound 0.625 µg/mL, partner 1.25 µg/mL, one replicate): 0.0701
- fitness (S. aureus Newman [6]; first compound 0.625 µg/mL, partner 2.5 µg/mL, one replicate): 0.0451
- fitness (S. aureus Newman [6]; first compound 1.25 µg/mL, partner 0.625 µg/mL, one replicate): 0.0304
- fitness (S. aureus Newman [6]; first compound 1.25 µg/mL, partner 1.25 µg/mL, one replicate): 0.0126
- fitness (S. aureus Newman [6]; first compound 1.25 µg/mL, partner 2.5 µg/mL, one replicate): 0
- fitness (S. aureus Newman [6]; first compound 2.5 µg/mL, partner 0.625 µg/mL, one replicate): 0.0624
- fitness (S. aureus Newman [6]; first compound 2.5 µg/mL, partner 1.25 µg/mL, one replicate): 0.0183
- fitness (S. aureus Newman [6]; first compound 2.5 µg/mL, partner 2.5 µg/mL, one replicate): 0.0123
- fitness (S. aureus DSM 20231 [7]; first compound 0.039 µg/mL, partner 0.625 µg/mL): 0.717
- fitness (S. aureus DSM 20231 [7]; first compound 0.039 µg/mL, partner 1.25 µg/mL): 0.707
- fitness (S. aureus DSM 20231 [7]; first compound 0.039 µg/mL, partner 2.5 µg/mL): 0.633
- fitness (S. aureus DSM 20231 [7]; [9]): 0.67
- fitness (S. aureus DSM 20231 [7]; [10]): 0.67
- fitness (S. aureus DSM 20231 [7]; [11]): 0.589
- fitness (S. aureus DSM 20231 [7]; [12]): 0.602
- fitness (S. aureus DSM 20231 [7]; [13]): 0.613
- fitness (S. aureus DSM 20231 [7]; [14]): 0.583
- fitness (S. aureus DSM 20231 [7]; [15]): 0.537
- fitness (S. aureus DSM 20231 [7]; [16]): 0.61
- fitness (S. aureus DSM 20231 [7]; [17]): 0.572
- fitness (S. pneumoniae D39V [8]; first compound 0.0018 µg/mL, partner 0.25 µg/mL): 0.944
- fitness (S. pneumoniae D39V [8]; first compound 0.0018 µg/mL, partner 0.5 µg/mL): 0.963
- fitness (S. pneumoniae D39V [8]; first compound 0.0018 µg/mL, partner 1 µg/mL): 0.863
- fitness (S. pneumoniae D39V [8]; first compound 0.0035 µg/mL, partner 0.25 µg/mL): 0.929
- fitness (S. pneumoniae D39V [8]; first compound 0.0035 µg/mL, partner 0.5 µg/mL): 0.944
- fitness (S. pneumoniae D39V [8]; first compound 0.0035 µg/mL, partner 1 µg/mL): 0.831
- fitness (S. pneumoniae D39V [8]; first compound 0.007 µg/mL, partner 1 µg/mL): 0.731
